Key:
[1] = test system: IL-4 stimulated expression of CD23 in human Ramos B cells (JAK-1 and JAK-3); assay: Assay for Ramos B-Cell Line Stimulated with IL-4 (CD23 upregulation, FACS); assay type: cell-based; details: Homo sapiens, Ramos, Ramos B cells stimulated with IL-4, CD23 expression by FACS; read-out: IC50, Example 41
Method in brief: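 Read-out: anti-CD23-PE flow cytometry on Ramos B cells, giving IC50. Cells (5×10^4 per point, RPMI + 5% serum) get compound or DMSO for 1 h at 37 °C, then IL-4 50 units/mL final for 20-24 h.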

[2] = test system: Primary human T-cells; assay: Primary Human T-Cell Proliferation Assay Stimulated with IL-2 (CellTiter-Glo); assay type: cell-based; details: Homo sapiens, T-cell, primary human T-cells stimulated with IL-2, proliferation; read-out: IC50, Example 42
Method in brief: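 Peripheral blood T-cells pre-activated with anti-CD3/anti-CD28 and IL-2 were washed free of IL-2, then cultured with compound plus IL-2 for 72 hours at 37° C, duplicate wells. Viability read as ATP by CellTiter-Glo luminescence; IC50 reported.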

Row | IC50 [1] | SMILES | IC50 [2]
1 | 37.5 nM | Cc1ccc(Nc2ncc(F)c(Nc3ccc(Cl)c(Cl)c3)n2)cc1S(N)(=O)=O [VI-6, N2-(3-Aminosulfonyl-4-methylphenyl)-N4-(3,4-dichlorophenyl)-5-fluoro-2,4-pyrimidinediamine] | 1450 nM
2 | 115 nM | Cc1ccc(Nc2ncc(F)c(Nc3ccc4c(CC#N)c[nH]c4c3)n2)cc1S(N)(=O)=O [IX-11, N2-(3-Aminosulfonyl-4-methylphenyl)-N4-(3-cyanomethyl-1H-indol-6-yl)-5-fluoro-2,4-pyrimidinediamine] | 215 nM
3 | 56.3 nM | C#CCOc1ccc(Nc2nc(Nc3ccc(C)c(S(N)(=O)=O)c3)ncc2F)cc1 [VI-53, N2-(3-Aminosulfonyl-4-methylphenyl)-5-fluoro-N4-[4-(prop-2-ynyloxy)phenyl]-2,4-pyrimidinediamine] | 181 nM
4 | 183 nM | Cc1ccc(Nc2ncc(F)c(Nc3ccc(O)cc3)n2)cc1S(N)(=O)=O [VI-102, N2-(3-Aminosulfonyl-4-methylphenyl)-5-fluoro-N4-[4-hydroxyphenyl]-2,4-pyrimidinediamine] | 135 nM
5 | 168 nM | Cc1ccc(Nc2ncc(F)c(Nc3ccc4oc(C#N)cc4c3)n2)cc1S(N)(=O)=O [VII-53, N2-(3-Aminosulfonyl-4-methylphenyl)-N4-(2-cyanobenzofuran-5-yl)-5-fluoro-2,4-pyrimidinediamine] | 484 nM
6 | 90.6 nM | C#CCNc1ccc(Nc2nc(Nc3ccc(C)c(S(N)(=O)=O)c3)ncc2F)cc1 [VI-65, N2-(3-Aminosulfonyl-4-methylphenyl)-5-fluoro-N4-[4-(prop-2-ynylamino)phenyl]-2,4-pyrimidinediamine] | 209 nM
7 | 132 nM | Cc1ccc(Nc2ncc(F)c(Nc3ccc(CCCF)cc3)n2)cc1S(N)(=O)=O [VI-84, N2-(3-Aminosulfonyl-4-methylphenyl)-5-fluoro-N4-[4-(3-fluoropropyl)phenyl]-2,4-pyrimidinediamine] | 514 nM
8 | 147 nM | C=Cc1ccc(Nc2nc(Nc3ccc(C)c(S(N)(=O)=O)c3)ncc2F)cc1 [VI-54, N2-(3-Aminosulfonyl-4-methylphenyl)-5-fluoro-N4-(4-vinylphenyl)-2,4-pyrimidinediamine] | 967 nM
9 | 103 nM | Cc1ccc(Nc2ncc(F)c(Nc3ccc(-c4cnco4)cc3)n2)cc1S(N)(=O)=O [IV-6, N2-(3-Aminosulfonyl-4-methylphenyl)-5-fluoro-N4-[4-(1,3-oxazol-5-yl)phenyl]-2,4-pyrimidinediamine] | 132 nM
10 | 99 nM | CC#CCOc1ccc(Nc2nc(Nc3ccc(C)c(S(N)(=O)=O)c3)ncc2F)cc1 [VI-61, N2-(3-Aminosulfonyl-4-methylphenyl)-N4-[4-(but-2-ynyloxy)phenyl]-5-fluoro-2,4-pyrimidinediamine] | 185 nM
11 | 29.1 nM | Cc1ccc(Nc2ncc(F)c(Nc3ccc4c(c3)N(CC#N)C(=O)CO4)n2)cc1S(N)(=O)=O [Compound V-8, N2-(3-Aminosulphonyl-4-methylphenyl)-5-fluoro-N4-[3-oxo-4-cyanomethyl-benz[1,4]oxazin-6-yl]-2,4-pyrimidinediamine] | 225 nM
12 | 52.9 nM | Cc1ccc(Nc2ncc(F)c(Nc3ccc4c(c3)N(CC#N)C(=O)CS4)n2)cc1S(N)(=O)=O [Compound V-13, N2-(3-Aminosulphonyl4-methylphenyl)-5-fluoro-N4-(3-oxo-4-cyanomethyl-benzo[1,4]thiazin-6-yl)-2,4-pyrimidinediamine] | 468 nM
13 | 210 nM | Cc1ccc(Nc2ncc(F)c(Nc3cccc4c(CC#N)c[nH]c34)n2)cc1S(N)(=O)=O [IX-16, N2-(3-Aminosulfonyl-4-methylphenyl)-N4-(3-cyanomethyl-1H-indol-7-yl)-5-fluoro-2,4-pyrimidinediamine] | 223 nM
14 | 33 nM | Cc1ccc(Nc2ncc(F)c(Nc3ccc4c(c3)NC(=O)CS4)n2)cc1S(N)(=O)=O [VII-44, N2-(3-Aminosulphonyl-4-methyl-phenyl)-5-fluoro-N4-(3-oxo-4H-benzo[1,4]thiazin-6-yl)-2,4-pyrimidinediamine] | 546 nM

The next lines start with the compound.

Row | SMILES | IC50 [1] | IC50 [2]
15 | C#CCOc1ccc(Nc2nc(Nc3ccc(C)c(S(=O)(=O)NC)c3)ncc2F)cc1 [VI-68, 5-Fluoro-N2-(4-methyl-3-methylaminosulfonylphenyl)-N4-[4-(prop-2-ynyloxy)phenyl]-2,4-pyrimidinediamine] | 102 nM | 742 nM
16 | NS(=O)(=O)c1ccc(Nc2ncc(F)c(Nc3ccc(CCCO)cc3)n2)cc1 [VI-85, N2-(4-Aminosulfonylphenyl)-5-fluoro-N4-[4-(3-hydroxypropyl)phenyl]-2,4-pyrimidinediamine] | 129 nM | 762 nM
17 | COc1ccc(Nc2nc(Nc3ccc(C)c(S(N)(=O)=O)c3)ncc2F)nc1N [VII-9, N2-(3-Aminosulfonyl-4-methylphenyl)-N4-[2-amino-3-methoxypyrid-6-yl]-5-fluoro-2,4-pyrimidinediamine] | 246 nM | 2720 nM
18 | NS(=O)(=O)c1ccc(Nc2ncc(F)c(NCCc3ccc(-n4ccnc4)cc3)n2)cc1 [III-90, N2-(4-Aminosulfonylphenyl)-5-fluoro-N4-[4-(1-imidazolyl)phenethyl]-2,4-pyrimidinediamine] | 358 nM | 468 nM
19 | COc1ccc(Nc2nc(Nc3cccc(S(N)(=O)=O)c3)ncc2F)cc1Cl [VI-107, N2-(3-Aminosulfonylphenyl)-5-fluoro-N4-(4-methoxy-3-chlorophenyl]-2,4-pyrimidinediamine] | 159 nM | 74.1 nM
20 | COc1ccc(CN2C(=O)C(C)Sc3ccc(Nc4nc(Nc5ccc(S(N)(=O)=O)cc5)ncc4F)cc32)cc1 (racemic) [Compound V-10, (R/S)-N2-(4-Aminosulphonylphenyl)-5-fluoro-N4-[2-methyl-3-oxo-4-(4-methoxybenzyl)-benzo[1,4]thiazin-6-yl]-2,4-pyrimidinediamine] | 261 nM | 8270 nM
21 | COc1ccc(Nc2nc(Nc3cc(C)c(F)c(S(N)(=O)=O)c3)ncc2F)cc1Cl [VI-15, N2-(3-Aminosulfonyl-4-fluoro-5-methylphenyl)-N4-(3-chloro-4-methoxyphenyl)-5-fluoro-2,4-pyrimidinediamine] | 45 nM | 469 nM
22 | C#CCOC(=O)NCc1ccc(Nc2nc(Nc3cccc(S(N)(=O)=O)c3)ncc2F)cc1 [VI-74, N2-(3-Aminosulfonylphenyl)-5-fluoro-N4-{4-[(prop-2-ynyloxy)carbonylaminomethyl]phenyl}-2,4-pyrimidinediamine] | 94.6 nM | 348 nM
23 | NS(=O)(=O)c1cccc(Nc2ncc(F)c(Nc3ccc(C(F)(F)F)cc3)n2)c1 [VI-51, N2-(3-Aminosulfonylphenyl)-5-fluoro-N4-(4-trifluoromethylphenyl)-2,4-pyrimidinediamine] | 152 nM | 547 nM
24 | N#CCN1C(=O)CSc2ccc(Nc3nc(Nc4ccc(S(N)(=O)=O)cc4)ncc3F)cc21 [Compound V-11, N2-(4-Aminosulphonylphenyl)-5-fluoro-N4-(3-oxo-4-cyanomethyl-benzo[1,4]thiazin-6-yl)-2,4-pyrimidinediamine] | 69.8 nM | 795 nM
25 | Cc1ccc2cc(Nc3nc(Nc4cccc(S(N)(=O)=O)c4)ncc3F)ccc2n1 [VII-72, N2-(3-Aminosulfonylphenyl)-5-fluoro-N4-(2-methylquinolin-6-yl)-2,4-pyrimidinediamine] | 84.8 nM | 415 nM
26 | NS(=O)(=O)c1cccc(Nc2ncc(F)c(Nc3ccc4sccc4c3)n2)c1 [VII-58, N2-(3-Aminosulfonylphenyl)-N4-(benzothiophen-5-yl)-5-fluoro-2,4-pyrimidinediamine] | 136 nM | 265 nM
27 | N#CCN1C(=O)CSc2ccc(Nc3nc(Nc4cccc(S(N)(=O)=O)c4)ncc3F)cc21 [Compound V-12, N2-(3-Aminosulphonylphenyl)-5-fluoro-N4-(3-oxo-4-cyanomethyl-benzo[1,4]thiazin-6-yl)-2,4-pyrimidinediamine] | 188 nM | 957 nM
28 | NS(=O)(=O)c1cccc(Nc2ncc(F)c(Nc3ccc(Cl)c(Cl)c3)n2)c1 [VI-110, N2-(3-Aminosulfonylphenyl)-N4-(3,4-dichlorophenyl)-5-fluoro-2,4-pyrimidinediamine] | 83.6 nM | 345 nM
29 | NS(=O)(=O)c1cccc(Nc2ncc(F)c(Nc3cccc(-c4cnco4)c3)n2)c1 [IV-1, N2-(3-Aminosulfonylphenyl)-5-fluoro-N4-[3-(1,3-oxazol-5-yl)phenyl]-2,4-pyrimidinediamine] | 73.6 nM | 287 nM
30 | Cc1ccc(Nc2ncc(C)c(Nc3ccc4c(c3)NC(=O)CO4)n2)cc1S(N)(=O)=O [VII-30, N2-(3-Aminosulphonyl-4-methylphenyl)-5-methyl-N4-(3-oxo-benz[1,4]oxazin-6-yl)-2,4-pyrimidinediamine] | 35.8 nM | 26.8 nM
31 | NS(=O)(=O)c1cccc(Nc2ncc(F)c(Nc3ccc4ncccc4c3)n2)c1 [VII-70, N2-(3-Aminosulfonylphenyl)-5-fluoro-N4-(quinolin-6-yl)-2,4-pyrimidinediamine] | 65.4 nM | 375 nM
32 | Cc1cc(Nc2ncc(F)c(Nc3ccc(OC(F)(F)F)c(Cl)c3)n2)cc(S(N)(=O)=O)c1Cl [VI-18, N2-(3-Aminosulfonyl-4-chloro-5-methylphenyl)-N4-(3-chloro-4-trifluoromethoxyphenyl)-5-fluoro-2,4-pyrimidinediamine] | 257 nM | 4370 nM
33 | Cc1ccc(Nc2ncc(F)c(Nc3cccc4cccnc34)n2)cc1S(N)(=O)=O [VII-77, N2-(3-Aminosulfonyl-4-methylphenyl)-5-fluoro-N4-(quinolin-8-yl)-2,4-pyrimidinediamine] | 124 nM | 1780 nM

From patent US11827628B2, “Compositions and methods for inhibition of the JAK pathway” (Rigel Pharmaceuticals, Inc., priority 2005, dated 2023)
